Measured values as given in ChEMBL document CHEMBL4813945, “Discovery and development of novel pyrimidine and pyrazolo/thieno-fused pyrimidine derivatives as potent and orally active inducible nitric oxide synthase dimerization inhibitor with efficacy for arthritis” (Eur J Med Chem, 2021).
Activity calls are given as the source filed them. The calls are words filed in the database; no cut-off is given here.

Columns and labels:
[1] = tested on: Rattus norvegicus; assay: Antiinflammatory activity in complete freund's adjuvant-induced IG dosed male Sprague-Dawley rat model of arthritis assessed as decrease in TNF-alpha level in serum after 4 weeks by ELISA; format: functional, organism-based; details: dose 40-80 mg/kg
[2] = biological target: Cytochrome P450 2D6 (Homo sapiens, UniProt P10635); assay: Inhibition of CYP2D6 in human liver microsomes using Dextromethorphan as substrate measured after 20 mins by LC-MS/MS analysis; format: ADME
[3] = Subacute toxicity in rat assessed as clonic convulsions at 100 to 500 mg/kg, IG administered every other day for 14 days and measured every 2 days; format: organism-based; details: in vivo, po, 336 h, dose 100-500 mg/kg, time 14 day
[4] = AUC (0 to infinity) in Sprague-Dawley rat at 10 mg/kg, po measured by LC-MS analysis; format: ADME, organism-based; design: time infinity, route oral, dose 10 mg/kg; details: in vivo
[5] = biological target: T1, Cytochrome P450 1A2 (Homo sapiens, UniProt P05177); assay: Inhibition of CYP1A2 in human liver microsomes using Phenacetin as substrate measured after 20 mins by LC-MS/MS analysis; format: ADME
T1 sequence (P05177 whole entry): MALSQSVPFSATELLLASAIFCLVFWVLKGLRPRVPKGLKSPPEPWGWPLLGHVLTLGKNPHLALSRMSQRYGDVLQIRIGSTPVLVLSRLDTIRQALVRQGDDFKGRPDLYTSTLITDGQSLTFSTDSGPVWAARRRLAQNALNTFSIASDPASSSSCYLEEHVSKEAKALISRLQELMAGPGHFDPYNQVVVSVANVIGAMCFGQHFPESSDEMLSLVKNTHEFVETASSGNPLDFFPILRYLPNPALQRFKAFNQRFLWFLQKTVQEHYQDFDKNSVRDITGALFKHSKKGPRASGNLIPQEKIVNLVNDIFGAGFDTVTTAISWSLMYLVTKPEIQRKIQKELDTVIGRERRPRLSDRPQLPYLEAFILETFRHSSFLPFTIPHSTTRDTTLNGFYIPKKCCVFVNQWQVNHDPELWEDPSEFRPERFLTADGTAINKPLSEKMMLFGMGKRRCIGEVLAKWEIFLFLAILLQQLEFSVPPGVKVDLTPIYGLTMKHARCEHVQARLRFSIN

[6] = Acute toxicity in rat assessed as weight loss at 2000 mg/kg, IG administered as single dose; format: organism-based; details: in vivo, po
[7] = tested on: RAW264.7; assay: Cytotoxicity against mouse RAW 264.7 cells assessed as cell viability by MTT assay; format: cell-based
[8] = Acute toxicity in rat assessed as mortality at 2000 mg/kg, IG administered as single dose; format: organism-based; details: in vivo, po
[9] = Metabolic stability in rat hepatocytes assessed as intrinsic clearance incubated up to 120 mins measured per million cells by LC-MS/MS analysis; format: ADME, cell-based, Hepatocyte; details: read-out: CLH
[10] = Half life in Sprague-Dawley rat at 10 mg/kg, po measured after 0.25 to 24 hrs by LC-MS/MS analysis; format: ADME, organism-based; details: in vivo, time 0.25-24 hrs
[11] = tested on: RAW264.7; assay: Inhibition of LPS-induced iNOS protein expression in mouse RAW264.7 cells at 0.5 to 2 uM preincubated for 1 hrs followed by LPS-stimulation and measured after 24 hrs by Western blot analysis; format: functional, cell-based; details: dose 0.5-2 µM, time 25.0 hrs
[12] = Subacute toxicity in rat assessed as liver damage at 100 to 500 mg/kg, IG administered every other day for 14 days and measured every 2 days by H and E staining; format: organism-based; details: in vivo, po, 336 h, dose 100-500 mg/kg, time 14 day
[13] = biological target: CYP3A4/5 (Homo sapiens, UniProt P08684+P20815); assay: Inhibition of CYP3A4/5 in human liver microsomes using Midazolam as substrate measured after 20 mins by LC-MS/MS analysis; format: ADME; details: probe Midazolam
[14] = tested on: Rattus norvegicus; assay: Antiinflammatory activity in complete freund's adjuvant-induced IG dosed male Sprague-Dawley rat model of arthritis assessed as decrease in IL-1beta level in serum after 4 weeks by ELISA; format: functional, organism-based; details: dose 40-80 mg/kg
[15] = Acute toxicity in rat assessed as liver necrosis at 200 to 500 mg/kg measured after 7 days by H and E staining based assay; format: organism-based; details: in vivo, 168 h, dose 200-500 mg/kg, time 7 day
[16] = Oral bioavailability in Sprague-Dawley rat at 10 mg/kg measured after 0.25 to 24 hrs hrs by LC-MS/MS analysis; format: ADME, organism-based; details: in vivo, time 0.25-24 hrs
[17] = AUC (0 to infinity) in Sprague-Dawley rat at 1 mg/kg, iv measured by LC-MS analysis; format: ADME, organism-based; design: time infinity, route intravenous, dose 1 mg/kg; details: in vivo
[18] = Metabolic stability in human hepatocytes assessed as half life measured upto 120 mins by LC-MS/MS analysis; format: ADME, cell-based, Hepatocyte

Sequence of Cytochrome P450 2D6 (P10635 whole entry): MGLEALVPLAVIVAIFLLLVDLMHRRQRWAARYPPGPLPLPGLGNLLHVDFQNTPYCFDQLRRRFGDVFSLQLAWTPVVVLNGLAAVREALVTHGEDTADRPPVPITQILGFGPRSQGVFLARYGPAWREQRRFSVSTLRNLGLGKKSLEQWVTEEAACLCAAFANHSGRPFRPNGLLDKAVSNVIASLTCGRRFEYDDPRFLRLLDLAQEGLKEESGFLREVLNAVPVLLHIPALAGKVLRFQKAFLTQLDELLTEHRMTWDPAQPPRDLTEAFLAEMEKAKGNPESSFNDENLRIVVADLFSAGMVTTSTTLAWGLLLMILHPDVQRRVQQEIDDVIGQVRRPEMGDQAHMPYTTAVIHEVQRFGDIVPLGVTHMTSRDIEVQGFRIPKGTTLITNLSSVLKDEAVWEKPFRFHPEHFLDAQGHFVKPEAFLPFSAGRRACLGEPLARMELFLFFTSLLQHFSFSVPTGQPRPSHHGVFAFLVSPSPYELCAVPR

COc1cc(/C=C/c2nc(NCc3ccc(C)cc3)c3sccc3n2)cc(OC)c1OC
Activity [1]: Dose-Dependent Effect | IC50 [2]: > 50 µM | Activity [3]: Non-Toxic | AUC [4]: 1152 ng·h/mL | IC50 [5]: 42.2 µM | Activity [6]: Non-Toxic | IC50 [7]: > 50 µM | Activity [8]: Non-Toxic | hepatocyte CLint [9]: 12.6 µL/min/1e6 cells | half-life [10]: 4.91 h | inhibition [11]: inactive | Activity [12]: Non-Toxic | IC50 at 20 min [13]: > 50 µM | Activity [14]: Dose-Dependent Effect | Activity [15]: Toxic | bioavailability [16]: 29.9% | AUC(0-inf) [17]: 401 ng·h/mL | half-life [18]: 5.44 h
